This note sets out measurements from patent publication US9796711B2, “Substituted pyrazolo[3,4-b]pyridin-6-carboxylic acids and method of use” (AbbVie S.àr.l., priority 2015, dated 2017).

As a reminder, the EC50 is the concentration at which the effect is half-maximal.

The structures appear in SMILES notation. Bounds are passed on as bounds.

The target of the test is T1, ΔF508-CFTR (Homo sapiens, UniProt P13569, DEL508-508).
T1 construct: host or cells: CFBE41o-, doxycycline-inducible
Nature of the test: CFTR cell surface levels using HRP-tagged ΔF508-CFTR expressing CFBE cells, in the presence of a co-corrector. The settings on record: HRP-tagged ΔF508-CFTR expressing CFBE cells, in the presence of 3 μM co-corrector; for EC50: read-out: EC50. Format: cell-based. A digest of the protocol:
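Cells were seeded with 0.5 μg/mL doxycycline and held 68 h at 37 °C. Test compounds plus 3 μM co-corrector (final 0.1% DMSO) were then added for 20 h at 33 °C. Washed cells received HRP substrate, and luminescence was normalized between DMSO and 3 μM co-corrector controls.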

T1 sequence (P13569 with tags, fused parts or gaps DEL508-508): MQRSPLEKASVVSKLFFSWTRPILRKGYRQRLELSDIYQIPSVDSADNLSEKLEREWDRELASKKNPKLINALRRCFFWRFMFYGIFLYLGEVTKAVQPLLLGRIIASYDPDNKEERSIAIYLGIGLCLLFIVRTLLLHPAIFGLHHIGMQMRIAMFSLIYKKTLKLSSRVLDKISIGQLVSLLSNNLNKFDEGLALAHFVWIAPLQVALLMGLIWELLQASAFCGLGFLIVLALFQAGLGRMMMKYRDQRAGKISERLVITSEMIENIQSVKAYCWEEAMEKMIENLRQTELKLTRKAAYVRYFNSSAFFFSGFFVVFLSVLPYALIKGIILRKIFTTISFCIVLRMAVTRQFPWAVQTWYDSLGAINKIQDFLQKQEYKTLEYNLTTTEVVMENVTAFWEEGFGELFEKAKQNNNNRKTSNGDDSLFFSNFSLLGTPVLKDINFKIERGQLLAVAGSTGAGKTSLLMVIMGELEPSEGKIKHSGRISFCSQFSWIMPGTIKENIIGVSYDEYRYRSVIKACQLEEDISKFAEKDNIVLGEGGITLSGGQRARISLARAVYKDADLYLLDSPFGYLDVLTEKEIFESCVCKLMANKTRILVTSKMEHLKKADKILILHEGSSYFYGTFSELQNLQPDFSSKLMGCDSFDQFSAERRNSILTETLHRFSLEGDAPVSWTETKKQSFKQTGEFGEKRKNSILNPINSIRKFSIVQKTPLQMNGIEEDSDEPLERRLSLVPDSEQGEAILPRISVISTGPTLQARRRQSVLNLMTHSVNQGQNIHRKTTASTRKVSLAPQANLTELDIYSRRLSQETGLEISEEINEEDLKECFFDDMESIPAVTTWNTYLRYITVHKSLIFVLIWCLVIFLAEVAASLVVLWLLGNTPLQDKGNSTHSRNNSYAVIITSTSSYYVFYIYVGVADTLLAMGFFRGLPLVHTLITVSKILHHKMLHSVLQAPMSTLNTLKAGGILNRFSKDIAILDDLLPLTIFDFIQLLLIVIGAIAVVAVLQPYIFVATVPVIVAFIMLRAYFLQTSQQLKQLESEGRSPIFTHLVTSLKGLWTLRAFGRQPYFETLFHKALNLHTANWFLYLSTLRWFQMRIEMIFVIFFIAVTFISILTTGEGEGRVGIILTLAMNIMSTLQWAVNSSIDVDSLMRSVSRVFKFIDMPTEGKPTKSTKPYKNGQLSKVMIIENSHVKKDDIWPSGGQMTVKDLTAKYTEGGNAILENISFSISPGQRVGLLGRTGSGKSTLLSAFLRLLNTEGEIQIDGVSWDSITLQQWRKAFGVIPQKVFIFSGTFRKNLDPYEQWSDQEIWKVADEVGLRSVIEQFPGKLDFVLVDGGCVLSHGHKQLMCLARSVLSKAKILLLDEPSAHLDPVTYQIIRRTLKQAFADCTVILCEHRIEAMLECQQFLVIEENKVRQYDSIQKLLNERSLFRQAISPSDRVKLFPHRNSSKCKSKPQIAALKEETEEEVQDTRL

Take `CCOCCN1CCC(N2CCN(c3cc(C(=O)O)nc4c3c(C(C)C)nn4-c3ccc(F)cc3)CC2)CC1` [compound 741, 4-{4-[1-(2-ethoxyethyl)piperidin-4-yl]piperazin-1-yl}-1-(4-fluorophenyl)-3-(propan-2-yl)-1H-pyrazolo[3,4-b]pyridine-6-carboxylic acid]: the “% Activation” value is given as 303% and the EC50 stood at 0.669 µM.
For `CC(C)c1nn(-c2ccc(F)cc2)c2nc(C(=O)O)cc(N3CC(C4CN(C)CCO4)C3)c12` (centres unmarked) [compound 740, 1-(4-fluorophenyl)-4-[3-(4-methylmorpholin-2-yl)azetidin-1-yl]-3-(propan-2-yl)-1H-pyrazolo[3,4-b]pyridine-6-carboxylic acid], in that order: 194.7% and 0.424 µM.
For `CC(C)c1nn(-c2ccc(F)cc2)c2nc(C(=O)O)cc(NC(=O)C3CCOCC3)c12` [compound 664, 1-(4-fluorophenyl)-4-[(oxane-4-carbonyl)amino]-3-(propan-2-yl)-1H-pyrazolo[3,4-b]pyridine-6-carboxylic acid], in that order: 120.6% and more than 10 µM.
For `CN(C)C(=O)CN1CCN(c2cc(C(=O)O)nc3c2c(C2CCC2)nn3-c2ccccc2)CC1` [compound 559, 3-cyclobutyl-4-{4-[2-(dimethylamino)-2-oxoethyl]piperazin-1-yl}-1-phenyl-1H-pyrazolo[3,4-b]pyridine-6-carboxylic acid], in that order: 352.47% and 2.05 µM.
For the molecule `CN(C)C1CCN(c2cc(C(=O)O)nc3c2c(C2CCC2)nn3-c2ccccc2)CC1` [compound 737, 3-cyclobutyl-4-[4-(dimethylamino)piperidin-1-yl]-1-phenyl-1H-pyrazolo[3,4-b]pyridine-6-carboxylic acid], the “% Activation” value was determined as 343.3% and the EC50 was 1.67 µM.
Take `COCC1(F)CCN(c2cc(C(=O)O)nc3c2c(C(C)C)nn3-c2ccc(F)cc2)CC1` [compound 669, 4-[4-fluoro-4-(methoxymethyl)piperidin-1-yl]-1-(4-fluorophenyl)-3-(propan-2-yl)-1H-pyrazolo[3,4-b]pyridine-6-carboxylic acid]: the “% Activation” value came to 315.5% and the EC50 came to 0.795 µM.
As for `CC(C)c1nn(-c2ccc(F)cc2)c2nc(C(=O)O)cc(N3CCC(C(=O)N4CCN(C)CC4)CC3)c12` [compound 755, 1-(4-fluorophenyl)-4-[4-(4-methylpiperazine-1-carbonyl)piperidin-1-yl]-3-(propan-2-yl)-1H-pyrazolo[3,4-b]pyridine-6-carboxylic acid], the “% Activation” value was 270.9% and the EC50 stood at 1.67 µM.
For `O=C(O)c1cc(N2CCS(=O)(=O)CC2)c2c(C3CCC3)nn(-c3ccccc3)c2n1` [compound 673, 3-cyclobutyl-4-(1,1-dioxo-1λ^6,4-thiazinan-4-yl)-1-phenyl-1H-pyrazolo[3,4-b]pyridine-6-carboxylic acid], in that order: 163.25% and 3.33 µM.
`CC(C)c1nn(-c2ccc(F)cc2)c2nc(C(=O)O)cc(OCC3CCCO3)c12` (centres unmarked) [compound 609, 1-(4-fluorophenyl)-4-[(oxolan-2-yl)methoxy]-3-(propan-2-yl)-1H-pyrazolo[3,4-b]pyridine-6-carboxylic acid]: the “% Activation” value is 336.4% and the EC50 was determined as 1.04 µM.
Consider `CC(C)COC(=O)N1CCN(c2cc(C(=O)O)nc3c2c(C2CCC2)nn3-c2ccccc2)CC1` [compound 701, 3-cyclobutyl-4-{4-[(2-methylpropoxy)carbonyl]piperazin-1-yl}-1-phenyl-1H-pyrazolo[3,4-b]pyridine-6-carboxylic acid], for which the “% Activation” value is 498.5% and the EC50 was 0.0361 µM.
On to `CN(CCN1CCOCC1)c1cc(C(=O)O)nc2c1c(C1CCC1)nn2-c1ccccc1` [compound 565, 3-cyclobutyl-4-{methyl[2-(morpholin-4-yl)ethyl]amino}-1-phenyl-1H-pyrazolo[3,4-b]pyridine-6-carboxylic acid], for which the “% Activation” value was found to be 319.8% and the EC50 came to 1.93 µM.
Take `CCOCC(=O)N1CCN(c2cc(C(=O)O)nc3c2c(C2CCC2)nn3-c2ccccc2)CC1` [compound 696, 3-cyclobutyl-4-[4-(ethoxyacetyl)piperazin-1-yl]-1-phenyl-1H-pyrazolo[3,4-b]pyridine-6-carboxylic acid]: the “% Activation” value turned out to be 346.8% and the EC50 was 1.67 µM.
For `CCN(CC)CCCC1CCN(c2cc(C(=O)O)nc3c2c(C2CCC2)nn3-c2ccccc2)CC1` [compound 731, 3-cyclobutyl-4-{4-[3-(diethylamino)propyl]piperidin-1-yl}-1-phenyl-1H-pyrazolo[3,4-b]pyridine-6-carboxylic acid] the same measures were 399.5% and 0.0945 µM.
For `CC(O)CN1CCC(N2CCN(c3cc(C(=O)O)nc4c3c(C3CCC3)nn4-c3ccccc3)CC2)CC1` (centres unmarked) [compound 727, 3-cyclobutyl-4-{4-[1-(2-hydroxypropyl)piperidin-4-yl]piperazin-1-yl}-1-phenyl-1H-pyrazolo[3,4-b]pyridine-6-carboxylic acid], in that order: 348% and 1.67 µM.
As for `O=C(O)c1cc(N2CCC(C3CCN(C4COC4)CC3)CC2)c2c(C3CCC3)nn(-c3ccccc3)c2n1` [compound 736, 3-cyclobutyl-4-[1′-(oxetan-3-yl)[4,4′-bipiperidin]-1-yl]-1-phenyl-1H-pyrazolo[3,4-b]pyridine-6-carboxylic acid], the “% Activation” value is 511.6% and the EC50 amounted to 0.0422 µM.
`CC(C)c1nn(-c2ccc(F)cc2)c2nc(C(=O)O)cc(N3CCC(N4CCOCC4)CC3)c12` [compound 756, 1-(4-fluorophenyl)-4-[4-(morpholin-4-yl)piperidin-1-yl]-3-(propan-2-yl)-1H-pyrazolo[3,4-b]pyridine-6-carboxylic acid]: the “% Activation” value is on record as 446% and the EC50 turned out to be 0.401 µM.
Consider `Cc1nn(-c2ccccc2)c2nc(C(=O)O)cc(-c3ccc(N(C)C4CCOCC4)cc3)c12` [compound 110, 3-methyl-4-{4-[methyl(oxan-4-yl)amino]phenyl}-1-phenyl-1H-pyrazolo[3,4-b]pyridine-6-carboxylic acid], for which the “% Activation” value was found to be 397.65% and the EC50 came to 0.536 µM.
For the molecule `Cc1nn(-c2ccccc2)c2nc(C(=O)O)cc(-c3ccc(N4CCC(C#N)CC4)cc3)c12` [compound 109, 4-[4-(4-cyanopiperidin-1-yl)phenyl]-3-methyl-1-phenyl-1H-pyrazolo[3,4-b]pyridine-6-carboxylic acid], the “% Activation” value turned out to be 398.15% and the EC50 was 0.752 µM.
With `CN(C)CCCN1CCN(c2cc(C(=O)O)nc3c2c(C2CCC2)nn3-c2ccccc2)CC1` [compound 728, 3-cyclobutyl-4-{4-[3-(dimethylamino)propyl]piperazin-1-yl}-1-phenyl-1H-pyrazolo[3,4-b]pyridine-6-carboxylic acid], the “% Activation” value is listed as 221.6% and the EC50 is 1.67 µM.
For `O=C(O)c1cc(N2CCCN(CC3CCCO3)CC2)c2c(C3CCC3)nn(-c3ccccc3)c2n1` (centres unmarked) [compound 572, 3-cyclobutyl-4-{4-[(oxolan-2-yl)methyl]-1,4-diazepan-1-yl}-1-phenyl-1H-pyrazolo[3,4-b]pyridine-6-carboxylic acid] the same measures were 330.8% and 1.19 µM.
As to `CC(=O)N1CCC(COc2cc(C(=O)O)nc3c2c(C(C)C)nn3-c2ccc(F)cc2)CC1` [compound 662, 4-[(1-acetylpiperidin-4-yl)methoxy]-1-(4-fluorophenyl)-3-(propan-2-yl)-1H-pyrazolo[3,4-b]pyridine-6-carboxylic acid], the “% Activation” value turned out to be 310.6% and the EC50 was found to be 2.3 µM.
As to `COC(=O)N1CCC(COc2cc(C(=O)O)nc3c2c(C(C)C)nn3-c2ccc(F)cc2)CC1` [compound 663, 1-(4-fluorophenyl)-4-{[1-(methoxycarbonyl)piperidin-4-yl]methoxy}-3-(propan-2-yl)-1H-pyrazolo[3,4-b]pyridine-6-carboxylic acid], the “% Activation” value came to 315.5% and the EC50 came out at 0.0909 µM.
In the case of `CC1(N2CCCCC2)CCN(c2cc(C(=O)O)nc3c2c(C2CCC2)nn3-c2ccccc2)CC1` [compound 698, 3-cyclobutyl-4-(4′-methyl [1,4′-bipiperidin]-1′-yl)-1-phenyl-1H-pyrazolo[3,4-b]pyridine-6-carboxylic acid], the “% Activation” value came out at 242.7% and the EC50 was 0.745 µM.
Regarding `COCCOCC1(F)CCCN(c2cc(C(=O)O)nc3c2c(C(C)C)nn3-c2ccc(F)cc2)C1` (centres unmarked) [compound 670, 4-{3-fluoro-3-[(2-methoxyethoxy)methyl]piperidin-1-yl}-1-(4-fluorophenyl)-3-(propan-2-yl)-1H-pyrazolo[3,4-b]pyridine-6-carboxylic acid], the “% Activation” value amounted to 397.3% and the EC50 was 0.218 µM.
For `CC(C)c1nn(-c2ccc(F)cc2)c2nc(C(=O)O)cc(N3CCC(N(C)C4COC4)CC3)c12` [compound 751, 1-(4-fluorophenyl)-4-{4-[methyl(oxetan-3-yl)amino]piperidin-1-yl}-3-(propan-2-yl)-1H-pyrazolo[3,4-b]pyridine-6-carboxylic acid], in that order: 400.2% and 1.59 µM.
